# Patent US4900815A, “Sulfated polysaccharide DS4152” (Daiichi Seiyaku Co., Ltd., priority 1986, dated 1990)
# Several values for one entry are separate records, joined by “and”; a condition that tells them apart may be missing. Identical values can stand only once. Counter-ions that a name gives are not always drawn.
# Columns and labels:
# [1] = test system: CAM angiogenesis; assay: CAM Angiogenesis Inhibition Test (Direct Method), antiestrogens with or without DS4152; type: in vivo, chick
# Description: (§1) Using chick embryos, a test was carried out in accordance with the following method, which was a partial modification of the Taylor-Folkman'smethod Nature, 297, 307 (1982)].
# (§2) Either DS4152 or heparin dissolved in physiological saline was added to the CAM of each 4-5 day old fertilized chicken 1 egg (species: NORIN CROSS) and then the eggs were incubated at 37° C.
# (§3) Two days after the addition of the agent, the degree of the CAM vascularization was compared with that of a control to which physiological saline was only added. The 50% vascularization inhibition dose (ID50) was calculated by the probit method.
# (§4) A test was conducted in the same manner as in Example 2. Antiestrogens were separately dissolved or suspended in physiological saline and were added either alone or together with DS4152. The eggs with the agents were incubated at 37° C. Two days after the addition of the agents, the degrees of development of CAM vessels were individually compared with that of a control to which physiological saline was only added.
# [2] = test system: CAM vascularization; assay: Antiangiogenic Effects (Ex Vivo) of tamoxifen with or without DS4152; design: species or system chick (blood from mice); conditions: for Inhibition rate of angiogenesis: tamoxifen citrate 100 mg/kg s.c.
# Description: (§5) Male ICR mice were orally administered with a solution of DS4152 dissolved in physiological saline. A saline suspension of a steroid was administered orally or intramuscularly, either in combination with DS4152 or alone. Blood samples collected after 6 hours were prevented from coagulation with a 0.313% aqueous solution of sodium citrate. Each blood sample was added to the 5 day CAM in the same manner as in the direct method. The inhibitory effects were judged after two days. Results were expressed by inhibition ratios (%) of CAM vascularization of each group to that of control group with a blood sample collected from the mice with saline. (Table 11).
# In the same manner as in Example 8, antiangiogenic effects of tamoxifen were examined with or without DS4152.
# [3] = test system: Sarcoma 180 (S180); assay: Antitumor Test, S180, tamoxifen citrate with DS4152 or heparins; type: in vivo, mouse (male ICR)
# Description: (§6) C3H/He male mice (5 weeks old) were each inoculated subcutaneously with 4×10^6 cells of mouse mammary carcinoma MM46. Mice were randomized after measuring the diameters of the resultant tumors on the 7th day. In addition, male ICR mice (5 weeks old) were each inoculated subcutaneously with 1×10^6 cells of Sarcoma 180 (S180). On the 3rd days, the mice were randomized. A saline suspension of tamoxifen citrate was administered once a day for 4 days to the MM46-bearing mice on the 7th day after inoculation and to the S180-bearing mice on the 3rd day after inoculation. DS4152 and heparins were individually dissolved in physiological saline and administered either orally or subcutaneously once a day for 4 days at a dose of 30 mg/kg/day or 300 mg/kg/day. On the 5th day after the beginning of the administration, the animals were sacrificed. The tumor weights were compared with those of the control mice administered only with physiological saline (Table 15).
# [4] = test system: mouse mammary carcinoma MM46; assay: Antitumor Test, MM46, tamoxifen citrate with DS4152; type: in vivo, mouse (male C3H/He)
# Description: as §6
# [5] = test system: CAM angiogenesis; assay: CAM Angiogenesis Inhibition Test (Direct Method), DS4152 and heparins with tamoxifen citrate; type: in vivo, chick; conditions: for 50% vascularization inhibition dose: with tamoxifen citrate 1 μg
# Description: as §1, §2, §3, §4
# [6] = test system: angiogenesis of the chick CAM; assay: CAM angiogenesis inhibition, various steroids alone or with DS4152; type: in vivo; conditions: for degree of increase: ID50 alone vs. in the presence of 10 ng of DS4152; for ID50, used in combination with DS4152: in the presence of 10 ng of DS4152; for ID50, alone: steroid alone
# [7] = test system: vascularization in chorioallantoic membrane (CAM) of chick embryo, rabbit cornea and hamster cheek pouches; conditions: cited from earlier work
# [8] = test system: breast cancer; conditions: Oncologia, 10, 72 (1984); cited from earlier work
# [9] = test system: CAM vascularization of chick embryos; assay: CAM Angiogenesis Inhibition Test (Direct Method); type: in vivo, chick (NORIN CROSS); conditions: even at 100 μg
# Description: as §1, §2, §3
# [10] = test system: CAM vascularization; assay: Antiangiogenic Effects (Ex Vivo) of steroids with or without DS4152; design: species or system chick (blood from male ICR mice)
# Description: as §5
# [11] = antiestrogen 1 μg, DS4152 0.01 μg
# [12] = antiestrogen 10 μg, DS4152 0 μg
# [13] = antiestrogen 10 μg, DS4152 0.01 μg
# [14] = tamoxifen citrate 100 mg/kg s.c. alone
# [15] = 300 mg/kg oral + tamoxifen citrate 100 mg/kg s.c.
# [16] = 300 mg/kg oral + tamoxifen citrate 100 mg/kg s.c., p < 0.05
molecule,measurement,setting,value
CC/C(=C(\c1ccccc1)c1ccc(OCCN(C)C)cc1)c1ccccc1 [Tamoxifen citrate],percent inhibition of CAM vascularization,"[1]; antiestrogen 1 μg, DS4152 0 μg",-0.4%
same,percent inhibition of CAM vascularization,[1]; [11],56.2%
same,percent inhibition of CAM vascularization,[1]; [12],2.9%
same,percent inhibition of CAM vascularization,[1]; [13],70.5%
same,Inhibition rate of angiogenesis,[2]; DS4152 0,-6.1% and -11.0%
same,Inhibition rate of angiogenesis,[2]; DS4152 30 mg/kg oral,40.0%
same,Inhibition rate of angiogenesis,[2]; DS4152 30 mg/kg subcutaneous,61.2%
same,influence on vascularization of CAM,[2]; tamoxifen citrate only,no influence
same,inhibition of CAM vascularization,[2]; tamoxifen with subcutaneous or oral DS4152 (30 mg/kg),inhibited markedly the CAM vascularization
same,effect on growth of sarcoma S180,[3]; administered alone,did not affect the growth
same,T/C,[3]; [14],97%
same,"Tumor weight, mean ± S.D.",[3]; [14],298 ± 31 mg
same,effect on growth of mammary carcinoma MM46,[4]; single administration (alone),inhibited
same,T/C,[4]; [14],6.6%
same,"Tumor weight, mean ± S.D.","[4]; tamoxifen citrate 100 mg/kg s.c. alone, p < 0.05",273 ± 27 mg
same,effect on vascularization,"[5]; 1 μg, alone",too little to affect the vascularization
C[C@]12C=CC(=O)C=C1CC[C@@H]1[C@@H]2[C@@H](O)C[C@@]2(C)[C@H]1CC[C@]2(O)C(=O)CO [Prednisolone],degree of increase,[6],16.3 times
same,"ID50, used in combination with DS4152",[6],0.08 μg/embryo
same,"ID50, alone",[6],1.30 μg/embryo
same,suppression of experimentally induced vascularization,[7],effective
COc1ccc2c(c1)CCC(c1ccccc1)=C2c1ccc(OCCN2CCCC2)cc1 [Nafoxidine chloride],percent inhibition of CAM vascularization,"[1]; antiestrogen 1 μg, DS4152 0 μg",-4.3%
same,percent inhibition of CAM vascularization,[1]; [11],23.1%
same,percent inhibition of CAM vascularization,[1]; [12],-3.2%
same,percent inhibition of CAM vascularization,[1]; [13],31.6%
C[C@]12CCC(=O)C=C1CC[C@@H]1[C@@H]2[C@@H](O)C[C@@]2(C)[C@H]1CC[C@]2(O)C(=O)CO [Hydrocortisone],degree of increase,[6],6.9 times
same,"ID50, used in combination with DS4152",[6],0.16 μg/embryo
same,"ID50, alone",[6],1.10 μg/embryo
C[C@@]12CCC[C@H]1[C@@H]1CC[C@H]3CCCC[C@]3(C)[C@H]1CC2 [5α-Androstane],degree of increase,[6],8.0 times
same,"ID50, used in combination with DS4152",[6],0.29 μg/embryo
same,"ID50, alone",[6],2.32 μg/embryo
C[C@]1(O)CC[C@H]2[C@@H]3CCC4=CC(=O)CC[C@]4(C)[C@@]3(F)[C@@H](O)C[C@@]21C [Fluoxymesterone],degree of increase,[6],10.3 times
same,"ID50, used in combination with DS4152",[6],0.12 μg/embryo
same,"ID50, alone",[6],1.24 μg/embryo
same,effectivity (anti-breast cancer),[8],20-30%
C[C@@H]1C[C@H]2[C@@H]3CCC4=CC(=O)C=C[C@]4(C)[C@@]3(F)[C@@H](O)C[C@]2(C)[C@@]1(O)C(=O)CO [dexamethasone],suppression of experimentally induced vascularization,[7],effective
low molecular weight heparin,T/C,[3]; [15],66%
same,"Tumor weight, mean ± S.D.",[3]; [16],202 ± 22 mg
same,50% vascularization inhibition dose,[5],1.37 µg
heparin,effect on CAM vascularization,[9],no effect
same,T/C,[3]; [15],66%
same,"Tumor weight, mean ± S.D.",[3]; [16],203 ± 13 mg
same,50% vascularization inhibition dose,[5],3.43 µg
C[C@]12C[C@H]3S[C@H]3C[C@@H]1CC[C@@H]1[C@@H]2CC[C@]2(C)[C@@H](O)CC[C@@H]12 [Epithiostanol],Inhibition rate of angiogenesis,"[10]; steroid i.m. 5 mg/kg, DS4152 0",4.0%
same,Inhibition rate of angiogenesis,"[10]; steroid i.m. 5 mg/kg, DS4152 30 mg/kg p.o.",5.2%
same,Inhibition rate of angiogenesis,"[10]; steroid i.m. 50 mg/kg, DS4152 0",13.4%
same,Inhibition rate of angiogenesis,"[10]; steroid i.m. 50 mg/kg, DS4152 30 mg/kg p.o.",23.4%
same,Inhibition rate of angiogenesis,"[10]; steroid i.m. 100 mg/kg, DS4152 0",24.2%
same,Inhibition rate of angiogenesis,"[10]; steroid i.m. 100 mg/kg, DS4152 30 mg/kg p.o.",37.6%
C[C@H]1C[C@H]2[C@@H]3CCC4=CC(=O)C=C[C@]4(C)[C@@]3(F)[C@@H](O)C[C@]2(C)[C@@]1(O)C(=O)CO [Betamethasone],degree of increase,[6],16.0 times
same,"ID50, used in combination with DS4152",[6],0.05 μg/embryo
same,"ID50, alone",[6],0.80 μg/embryo
CC(=O)[C@H]1CC[C@H]2[C@@H]3CCC4=CC(=O)CC[C@]4(C)[C@H]3CC[C@]12C [Progesterone],degree of increase,[6],2.1 times
same,"ID50, used in combination with DS4152",[6],0.49 μg/embryo
same,"ID50, alone",[6],1.02 μg/embryo
CC(=O)O[C@]1(C(C)=O)CC[C@H]2[C@@H]3C[C@H](C)C4=CC(=O)CC[C@]4(C)[C@H]3CC[C@@]21C [Medroxyprogesterone acetate],degree of increase,[6],2.7 times
same,"ID50, used in combination with DS4152",[6],0.42 μg/embryo
same,"ID50, alone",[6],1.12 μg/embryo
CCC(=O)O[C@H]1CC[C@H]2[C@@H]3CCC4=CC(=O)CC[C@]4(C)[C@H]3CC[C@]12C [testosterone propionate],effectivity (anti-breast cancer),[8],20-30%
CCN(CC)CCOc1ccc(C(=C(Cl)c2ccccc2)c2ccccc2)cc1 [Clomiphene citrate],percent inhibition of CAM vascularization,"[1]; antiestrogen 1 μg, DS4152 0 μg",-3.9%
same,percent inhibition of CAM vascularization,[1]; [11],32.6%
same,percent inhibition of CAM vascularization,[1]; [12],-11.4%
same,percent inhibition of CAM vascularization,[1]; [13],42.0%
C[C@]12CC[C@@H](O)C[C@H]1CC[C@@H]1[C@@H]2CC[C@@]2(C)[C@H]1CC[C@]2(O)C(=O)CO [Tetrahydro S],degree of increase,[6],100.0 times
same,"ID50, used in combination with DS4152",[6],0.01 μg/embryo
same,"ID50, alone",[6],1.00 μg/embryo
same,Inhibition rate of angiogenesis,"[10]; steroid p.o. 1 mg/kg, DS4152 0",-2.6%
same,Inhibition rate of angiogenesis,"[10]; steroid p.o. 1 mg/kg, DS4152 30 mg/kg p.o.",71.7%
same,Inhibition rate of angiogenesis,"[10]; steroid p.o. 5 mg/kg, DS4152 0",-17.3%
same,Inhibition rate of angiogenesis,"[10]; steroid p.o. 5 mg/kg, DS4152 30 mg/kg p.o.",80.7%
C[C@H]1C[C@@H]2[C@H]([C@@H](O)C[C@@]3(C)[C@H]2CC[C@]3(O)C(=O)CO)[C@@]2(C)C=CC(=O)C=C12 [6α-Methylprednisolone],degree of increase,[6],38.3 times
same,"ID50, used in combination with DS4152",[6],0.03 μg/embryo
same,"ID50, alone",[6],1.15 μg/embryo
same,suppression of experimentally induced vascularization,[7],effective
C[C@]12CC[C@@H]3c4ccc(O)cc4CC[C@H]3[C@@H]1CC[C@@H]2O [17β-Estradiol],degree of increase,[6],7.0 times
same,"ID50, used in combination with DS4152",[6],0.28 μg/embryo
same,"ID50, alone",[6],1.96 μg/embryo
